This note sets out measurements from ChEMBL document CHEMBL1149481, “Inhibitors of epidermal growth factor receptor tyrosine kinase: optimisation of potency and in vivo pharmacokinetics” (Bioorg Med Chem Lett, 2006).

A short description of data set [1]: physchem.
The nature of data set [2]: Bioavailability in Wistar rat at 2 mg/kg, iv and 10 mg/kg, po. The data set is classed as ADME, organism-based. The note with it: in vivo.
Data set [3] deals with Mus musculus. As to the kind of experiment: Free drug level in mouse plasma at 50 mg/kg, po at 6 hrs. The data set is classed as ADME, organism-based. Set-up: dose 50 mg/kg, route oral. The conditions noted are these: in vivo.
A short description of data set [4]: Volume of distribution in Wistar rat at 2 mg/kg, iv and 10 mg/kg, po. It is filed as ADME, organism-based. The conditions noted are these: in vivo, read-out: Vdss.
Data set [5] concerns Rattus norvegicus. As to the kind of experiment: AUC in Wistar rat at 10 mg/kg, po normalized to 1 mg/kg. The note with it: in vivo. The data set is classed as ADME, organism-based, Plasma.
For data set [6], the system named is Mus musculus. In words: Free drug level in mouse plasma at 50 mg/kg, po at 4 hrs. It is filed as ADME, organism-based. Also noted: dose 50 mg/kg, route oral. The note with it: in vivo.
The subject of data set [7] is Mus musculus. As to the kind of experiment: Free drug level in mouse plasma at 50 mg/kg, po at 24 hrs. Also noted: dose 50 mg/kg, route oral. The note with it: in vivo. It is filed as ADME, organism-based.
For data set [8], the system named is Mus musculus. As to the kind of experiment: Free drug level in mouse plasma at 50 mg/kg, po at 2 hrs. The data set is classed as ADME, organism-based. The note with it: in vivo. Set-up: dose 50 mg/kg, route oral.
Data set [9] is described as follows: in vivo. The note with it: Wistar, rat, iv, 2 mg/kg.
Data set [10] in a line: Half life in rat. The data set is classed as ADME, organism-based. The conditions noted are these: in vivo.
A short description of data set [11]: Cmax in nude mouse xenografted with human LoVo cell at 100 mg/kg, po. It is filed as ADME, organism-based. Also noted: dose 100 mg/kg, route oral. The note with it: in vivo.
The nature of data set [12]: AUC in nude mouse xenografted with human LoVo cell at 100 mg/kg, po. It is filed as ADME, organism-based. Set-up: dose 100 mg/kg, route oral. The note with it: in vivo.
A short description of data set [13]: Volume of distribution in Wistar rat at 2 mg/kg, iv and 5 mg/kg, po. The data set is classed as ADME, organism-based. The conditions noted are these: in vivo, read-out: Vdss.
Data set [14] in a line: Clearance in Wistar rat at 2 mg/kg, iv and 5 mg/kg, po. It is filed as ADME, organism-based. The conditions noted are these: in vivo.
Data set [15] in a line: Bioavailability in Wistar rat at 2 mg/kg, iv and 5 mg/kg, po. The data set is classed as ADME, organism-based. The conditions noted are these: in vivo.
Data set [16] can be described thus: Cmax in nude mouse xenografted with human LoVo cell at 50 mg/kg, po. The data set is classed as ADME, organism-based. Also noted: dose 50 mg/kg, route oral. The note with it: in vivo.
Data set [17] in a line: AUC in nude mouse xenografted with human LoVo cell at 50 mg/kg, po. The note with it: in vivo. It is filed as ADME, organism-based. Set-up: dose 50 mg/kg, route oral. For orientation: Xenograft models place foreign cells or tissue in a host animal.
The nature of data set [18]: Cmax in nude mouse xenografted with human LoVo cell at 50 mg/kg, po, twice daily. The conditions noted are these: in vivo. The data set is classed as ADME, organism-based. Also noted: route oral, dose 50 mg/kg.
Data set [19] concerns Rattus norvegicus. In words: AUC in Wistar rat at 5 mg/kg, po normalized to 1 mg/kg. The conditions noted are these: in vivo. It is filed as ADME, organism-based, Plasma.
The nature of data set [20]: AUC in nude mouse xenografted with human LoVo cell at 50 mg/kg, po, twice daily. The data set is classed as ADME, organism-based. Set-up: dose 50 mg/kg. The conditions noted are these: in vivo.
Data set [21] in a line: Terminal half life in cancer affected human. The conditions noted are these: in vivo, read-out: beta t1/2 (converted). The data set is classed as ADME, organism-based.
Data set [22] in a line: Terminal half life in human. The data set is classed as ADME, organism-based. The note with it: in vivo, read-out: beta t1/2 (converted).
A short description of data set [23]: Volume of distribution in rat. The data set is classed as ADME, organism-based. The note with it: in vivo.

In general, pKa refers to the negative logarithm of the acid dissociation constant. As for `COc1cc2ncnc(Nc3cc(Cl)ccc3F)c2cc1OC1CCN(CC(N)=O)CC1`, the pKa in [1] worked out at 6.7.
As usually defined, the bioavailability is dose-corrected exposure relative to a reference, in per cent. What is called AUC is the area under the concentration-time curve, a measure of exposure. Higher therefore signals more exposure. In turn, `COc1cc2ncnc(Nc3cc(Cl)ccc3F)c2cc1OCCCN1CCOCC1` came in with a bioavailability in data set [2] of 71%. Besides, the Cp in data set [3] was found to be 170 nM; in data set [6], 360 nM; in data set [7], 0 nM; in data set [8] it was 300 nM. In addition, the Vd in data set [4] worked out at 3.5 L/kg. In addition, the AUC in [5] was determined as 1.64 µM·h. The compound also gave a clearance in data set [9] of 16 mL/min/kg.
One may read the Cmax as the maximum level reached in the sampled fluid or tissue. Compound `COc1cc2ncnc(Nc3cccc(Cl)c3F)c2cc1OC1CCN(S(C)(=O)=O)CC1` showed a half-life in [10] of 1.6 h. Moreover, the highest concentration (Cmax) came out at 36800 nM in data set [11], 30600 nM in data set [16] and 23900 nM in data set [18]. Further, the AUC in data set [12] worked out at 450 µM·h; in data set [17], 225 µM·h; in [19], 1.18 µM·h; in [20] it was 286 µM·h. The Vd in data set [13] came to 1.5 L/kg. The compound also had a clearance in [14] of 13 mL/min/kg. Moreover, the bioavailability in data set [15] worked out at 45%.
The compound `COc1cc2ncnc(Nc3cc(Cl)ccc3F)c2cc1OCC1CCN(C)CC1` gave a pKa in data set [1] of 9.3.
Still for that read-out and setting: with `COc1cc2ncnc(Nc3ccc(F)c(Cl)c3)c2cc1OCC1CCN(C)CC1` the figure was 9.3; with `COc1cc2ncnc(Nc3cccc(Cl)c3F)c2cc1OCC1CCN(C)CC1`, 9.3.
Consider `COc1cc2ncnc(Nc3cccc(Cl)c3F)c2cc1OC1CCN(CC(N)=O)CC1`, for which the Vd in [13] is 2.7 L/kg. In data set [14], this compound had a clearance of 16 mL/min/kg. In addition, in data set [15], the bioavailability worked out at 27%. In [1], this compound gave a pKa of 6.7. Further, the exposure (AUC) in data set [19] was found to be 0.59 µM·h.
In data set [1], `COc1cc2ncnc(Nc3cc(Cl)ccc3F)c2cc1OC1CCN(C)CC1` returned a pKa of 8.8.
Regarding `COCCN1CCC(Oc2cc3c(Nc4cccc(Cl)c4F)ncnc3cc2OC)CC1`, the Vd in data set [13] is 1.3 L/kg. In data set [14], this compound gave a clearance of 11 mL/min/kg. The same compound came in with a bioavailability in [15] of 30%. Besides, the pKa in data set [1] worked out at 8.1. This compound also came in with an area under the curve (AUC) in data set [19] of 0.95 µM·h.
In the case of `COc1cc2ncnc(Nc3ccc(F)c(Cl)c3)c2cc1OCCCN1CCOCC1` [GEFITINIB], the half-life is 7 h in data set [10], 37 h in data set [21] and 28 h in [22]. The values for the Cmax in data set [11] and in data set [16] were 6700 nM and 8100 nM, respectively. In data set [2], this compound displayed a bioavailability of 56%. Further, the AUC in data set [12] was 85.9 µM·h; in data set [5], 0.32 µM·h; in [17] it was 78.7 µM·h. The Cp in data set [3] was 150 nM; in [6], 130 nM; in data set [7], 10 nM; in data set [8], 260 nM. Also, the Vd in [4] and in data set [23] was 5.8 L/kg throughout.
Consider `COc1cc2c(Nc3ccc(Br)cc3F)ncnc2cc1OCC1CCN(C)CC1` [VANDETANIB], for which, in data set [1], the pKa was determined as 9.3.
Take `COc1cc2ncnc(Nc3cccc(Cl)c3F)c2cc1OCCCN1CCOCC1`: in data set [2], the bioavailability is 73%. Besides, the Cp in data set [3] worked out at 410 nM; in data set [6] it was 680 nM; in data set [7], 10 nM; in data set [8] it was 430 nM. The Vd in [4] stood at 4.3 L/kg. In [5], the AUC was 0.94 µM·h. In addition, the clearance in data set [9] is 29 mL/min/kg.
In data set [1], `COCCN1CCC(Oc2cc3c(Nc4cc(Cl)ccc4F)ncnc3cc2OC)CC1` registered a pKa of 8.1.
For the compound `COc1cc2ncnc(Nc3cccc(Cl)c3F)c2cc1OC1CCN(C)CC1`, the Vd in data set [13] turned out to be 20.8 L/kg. Further, in data set [14], the clearance amounted to 129 mL/min/kg. In data set [15], this compound showed a bioavailability of 74%. For the same compound, the pKa in data set [1] is 8.8. This compound returned an area under the curve (AUC) in data set [19] of 0.08 µM·h.
For `COc1cc2ncnc(Nc3ccc(F)c(Cl)c3)c2cc1OC1CCN(C)CC1`, the pKa in [1] is 8.8.
